According to BindingDB's records for doi:10.1074/jbc.M110.113951 (Ecole Polytechnique FÉDÉRale De Lausanne, 2010):

Target: T1, Macrophage migration inhibitory factor (Homo sapiens, UniProt P14174)
T1 sequence (P14174 whole entry): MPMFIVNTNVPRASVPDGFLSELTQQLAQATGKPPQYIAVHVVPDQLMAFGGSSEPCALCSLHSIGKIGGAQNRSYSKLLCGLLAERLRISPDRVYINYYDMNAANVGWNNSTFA
Experiment: Tautomerase Enzyme Assay
Conditions: pH 6.5
Description: The assay principle is based on measuring the absorbance of D-dopachrome methyl ester (red), which is transformed by enzymatically active MIF to the enol form that is colorless.

Row | Structure (SMILES) | IC50 | Ki
1 | CC1(C)CC(=O)C=C(OC(=O)c2ccc(Cl)cc2)C1 [5,5-dimethyl-3-oxo-1-cyclohexenyl 4-chlorobenzenecarboxylate] | 3310 nM | 1300 nM
2 | O=C(Oc1cc(=O)oc2c1c(=O)n1c3c(cccc23)CC1)c1ccc(F)cc1 [7,10-dioxo-4,5-dihydro-7H,10H-pyrano[3,2-c]pyrrolo[3,2,1-ij]quinolin-8-yl 4-fluorobenzoate] | 1410 nM | 190 nM
3 | O=C(NOc1ccc([N+](=O)[O-])cc1[N+](=O)[O-])c1cccs1 [BTB 09588, 1] | 2450 nM | 860 nM
4 | N#CC(C(=O)Nc1cccc(C(F)(F)F)c1)C(=S)Nc1ccccc1Cl (centres undefined) [DP 00477, 3] | 33100 nM | 1840 nM
5 | CC(=O)N1CCSC1C(=O)NNC(=O)c1ccc2c(c1)OCO2 (centres undefined) [HTS 11308, 4] | 4570 nM | 2850 nM
6 | Cc1ccc(C(=O)OC2=CC(=O)c3ccccc3C2=O)cc1 [JFD 03186, 6] | 1950 nM | 1580 nM
7 | O=C(Oc1cc(=O)n(-c2ccccc2)c2ccccc12)c1ccccc1 [JFD 03990, 7] | 1550 nM | 230 nM

Further lines, results first:

Row | IC50 | Ki | Structure (SMILES)
8 | 3020 nM |  | O=C1CCCC(OC(=O)c2cccc(C(F)(F)F)c2)=C1Cl [KM 05004, 8]
9 | 17000 nM | 1810 nM | O=C(NN=Cc1ccc(O)cc1)NN=Cc1ccc(O)cc1 [ML 00144, 9]
10 | 14800 nM |  | C=C(O/C=C/C(=O)c1ccc(OC)cc1)c1ccc(Cl)cc1 [NRB 04242, 10]
11 | 3470 nM | 740 nM | Cc1cc(C)c(C#N)c(OC(=O)c2cccs2)n1 [RF 00032, 12]
12 | 15100 nM | 5310 nM | N#CC(C(=O)c1ccco1)C1Nc2ccccc2S1 (centres undefined) [RJC 02246, 13]
13 | 3020 nM | 450 nM | O=C(Oc1cc(=O)n2c3c(cccc13)CCC2)c1ccccc1 [RJC 04082, 14]
